Values belong to the molecule of their own block, whether it stands above or below them.
Assays:
[1] = test system: A549 adenocarcinoma alveolar epithelial cancer cells; test: Antiproliferative activity (NCI procedure, sulforhodamine B), A549; format: cell-based, human; details: Homo sapiens, A549, 48 h; for GI50: Table 2; for IC50: unit inferred, tested 781 nM to 100 μM
Protocol: (§1) The antiproliferative activity of compounds 3a-b, 4a-e, 5a-e and 6a-e was subsequently evaluated using the human HT-29 colon adenocarcinoma and the A549 adenocarcinoma alveolar epithelial cancer cell lines, the HaCaT spontaneously transformed aneuploid immortal keratinocyte cell line and the HDFn neonatal dermal fibroblast cell line (Table 2). Cell growth inhibition was assessed according to the NCI/NIH Developmental Therapeutics Program.
(§2) The antiproliferative activity assay of all compounds was assessed using the procedure recommended by the National Cancer Institute for its drug screening program with minor modifications. Briefly, 96-well microtiter plates were seeded with 75 μL of a suspension of either HaCaT (5×10^3), HT-29 (3.0×10^3), A549 (3.0×10^3) or HDFn (3×10^3) cells per well in DMEM and incubated for 24 h at 37° C. in a moisture-saturated atmosphere containing 5% CO2. Compounds freshly solubilized in DMSO (40 mM) were diluted in fresh DMEM, and 75 μL aliquots containing serially diluted concentrations of the compound were added. Final compound concentrations ranged from 100 μM to 781 nM. DMSO was maintained at a concentration of <0.5% (v/v) to avoid any related cytotoxicity. Plates were subsequently incubated for 48 h. Cell growth was then stopped by the addition of cold trichloroacetic acid to the wells (10% w/v, final concentration), followed by a 1 h incubation period at 4° C. The plates were washed 4-times with water. A sulforhodamine B solution (75 μL; 0.1% w/v) in acetic acid (1%) was subsequently added to each well and the plates incubated over a 15 min period while at room temperature. After staining, any unbound dye was removed by washing 4-times with an acetic acid solution (1%). Bound dye was solubilized in 20 mM Tris base and the absorbance was measured at an optimal wavelength (530-568 nm) using a μQuant® Universal microplate spectrophotometer (BioTek, Winooski, Vt.). The measurements for treated cells were compared with measurements from control cell plates fixed on treatment day and the percentage of cell growth inhibition was calculated for each drug. The experiments were performed at least twice in triplicate. The assays were considered valid when the coefficient of variation for a given set of conditions and within the same experiment was <10%.

[2] = test system: HDFn neonatal dermal fibroblast cell line; test: Antiproliferative activity (NCI procedure, sulforhodamine B), HDFn; format: cell-based, human; details: Homo sapiens, Fibroblast, 48 h; for GI50: Table 2; for IC50: unit inferred, tested 781 nM to 100 μM
Protocol: as §1, §2

[3] = test system: HT-29 colon adenocarcinoma cells; test: Antiproliferative activity (NCI procedure, sulforhodamine B), HT-29; format: cell-based, human; details: Homo sapiens, HT-29, 48 h; for GI50: Table 2; for IC50: unit inferred, tested 781 nM to 100 μM
Protocol: as §1, §2

[4] = test system: HaCaT keratinocyte cell line; test: Antiproliferative activity (NCI procedure, sulforhodamine B), HaCaT; format: cell-based, human; details: Homo sapiens, HaCaT, 48 h; for GI50: Table 2; for IC50: unit inferred, tested 781 nM to 100 μM
Protocol: as §1, §2

IL-6 = IL-6 expression in HaCaT cells stimulated with IL-17A and TNFα (ELISA); format: cell-based, human; details: for Expression of IL-6, HaCaT: 10 μM solutions, HaCaT stimulated with IL-17A and TNFα, mean of five experiments in duplicate
Source text: The effect of compounds 3a-b, 4a-e, 5a-e and 6a-e on the expression of IL-6 was subsequently assessed using the HaCaT spontaneously transformed aneuploid immortal keratinocyte cell line, stimulated by the addition of IL-17A and TNFα in the culture medium (Table 1). Curcumin and ibuprofen were used as known IL-6 expression inhibitors. DMSO was used for solubilizing the drugs. […] Indeed, the inhibitory effect of these molecules was at least equivalent to that of curcumin [27] and ibuprofen, both recognized as anti-inflammatory drugs. The inhibitory effect of the substituted phenyl cycloalkylureas in accordance with an embodiment of the present disclosure on proinflammatory cytokines was also found at the mRNA level. Indeed, the mRNAs of the cytokines IL-6 and TNF-α as well as the mRNA of the chemokine IL-8 were lowered in TNF-α/IL-17A-stimulated HaCaT cells. Similar results were obtained in THP-1 cells stimulated with LPS where treatments with CHEU and 4e diminished the mRNA levels of the cytokines IL-1B, IL-6 and TNF-α in addition to the mRNA levels of the chemokine IL-8. It is surmised that the anti-inflammatory mechanism of action of the compounds of the present disclosure is likely mediated, at least in part, by modulating the phosphorylation state of the MAP kinase p38. […] Addition of a compound in accordance with an embodiment of the present disclosure, prior to stimulation with the aforementioned cytokines, decreases the level of p-p38 at 30-60 minutes post-stimulation. This diminution in p-p38 levels destabilizes the mRNAs of pro-inflammatory cytokines, non-limiting examples of which include TNF-α and IL-6. Moreover, it is surmised that the effect of the compounds of the present disclosure on p-p38 is potentially mediated by the activation of the phosphatase named DUSP1.
HaCaT cells (1×10^5) were suspended in DMEM culture media (500 μL) and incubated for 24 h in 24-well microtiter plates at 37° C. in a moisture-saturated atmosphere containing 5% CO2. Compounds were solubilized in DMSO and diluted in fresh DMEM. The compound (500 μL) was then added to the cell medium to obtain a final concentration of […] and the cells incubated over a period of 1 hour. In the meantime, IL-17α (200 ng/mL) and TNFα (20 ng/mL) (PeproTech, Rocky Hill, N.J.) were added to the drug solution in DMEM. Following the initial incubation of the cells, the culture medium was aspirated from each well and the IL-17α+ TNFα+ compound solution was added to each well for incubation (6 hours). The culture media was then removed and transferred to a clean tube (1.5 mL) at −80° C. until the ELISA test was performed. The presence of IL-6 in the cell media was determined using an IL-6 human Duoset ELISA kit (Fisher Scientific, Ottawa, On.) according to the manufacturer's instructions. Standards and samples were prepared and assessed in duplicate. Two separate replicates were performed for each sample. The absorbance was measured at 450 nm and 540 nm using a TECAN infinite M1000 plate reader.

HaCaT cells = test: Cell cycle analysis by flow cytometry; format: cell-based, human; details: 10 μM, 24 h
Protocol: The effect of compounds 3a-b, 4e, 5b-c, 6a and 6e on cell cycle progression was subsequently assessed using a flow cytometer in accordance with established experimental protocols to evaluate any potential drug toxicity at specific phases of the cell cycle (Table 3).
HaCaT cells (2.5×10^5) were incubated with compounds 3a-b, 4e, 5b-c, 6a and 6e and curcumin (10 μM) over a period of 24 h. The cells were subsequently trypsinized, washed with PBS, resuspended in PBS (250 μL), fixed by the addition of ice-cold EtOH (750 μL) under agitation and stored at −20° C. until analysis. Prior to FACS analysis, cells were washed with PBS and resuspended in PBS (500 μL) containing 4′,6′-diamidino-2-phenylindole (DAPI) (2 μg/mL). The cell cycle was analyzed using an LSR II flow cytometer (BD Biosciences, Franklin Lakes, N.J.).

melting point: 179 to 184 °C
SMILES: CC(C)(C)c1ccc(NC(=O)NCC2CCC2)cc1 [Compound 30, 1-(4-(t-Butyl)phenyl)-3-(cyclobutylmethyl)urea]
GI50 [1]: > 100 µM
IC50 ([1]; Table 6): ≥ 100 µM
GI50 [2]: 8.2 µM
IC50 ([2]; Table 6): 8.2 µM
GI50 [3]: 21 µM
IC50 ([3]; Table 6): 21 µM
GI50 [4]: 35 µM
IC50 ([4]; Table 6): 35 µM
Expression of IL-6, HaCaT (IL-6): 70.6 ± 7.6 pg/mL

melting point: 169 to 171 °C
SMILES: CC(C)(C)c1cccc(NC(=O)NC2CC2)c1 [Compound 44]
GI50 [1]: > 100 µM
IC50 ([1]; Table 6): ≥ 100 µM
GI50 [2]: > 100 µM
IC50 ([2]; Table 6): ≥ 100 µM
GI50 [3]: > 100 µM
IC50 ([3]; Table 6): ≥ 100 µM
GI50 [4]: > 100 µM
IC50 ([4]; Table 6): ≥ 100 µM
Expression of IL-6, HaCaT (IL-6): 50.4 ± 2.6 pg/mL

SMILES: O=C(Nc1ccc(I)cc1)NC1CC1 [Compound 20, 1-Cyclopropyl-3-(4-iodophenyl)urea]
GI50 [1]: > 100 µM
IC50 ([1]; Table 6): ≥ 100 µM
GI50 [2]: 95 µM
IC50 ([2]; Table 6): 95 µM
GI50 [3]: 82 µM
IC50 ([3]; Table 6): 82 µM
GI50 [4]: > 100 µM
IC50 ([4]; Table 6): ≥ 100 µM
Expression of IL-6, HaCaT (IL-6): 47.9 ± 4.5 pg/mL

melting point: 138 to 139 °C
SMILES: CC(C)(C)c1ccc(NC(=O)NC2CC2)cc1 [Compound 27, 1-(4-(t-Butyl)phenyl)-3-cyclopropylurea]
GI50 [1]: > 100 µM
IC50 ([1]; Table 6): ≥ 100 µM
GI50 [2]: 55 µM
IC50 ([2]; Table 6): 55 µM
GI50 [3]: 85 µM
IC50 ([3]; Table 6): 85 µM
GI50 [4]: > 100 µM
IC50 ([4]; Table 6): ≥ 100 µM
Expression of IL-6, HaCaT (IL-6): 91.9 ± 7.6 pg/mL

SMILES: CCNC(=O)Nc1ccc(C(C)(C)C)cc1 [tBEU, reference compound]
Cell cycle progression G0-G1 (HaCaT cells): 55.5
Cell cycle progression G2-M (HaCaT cells): 19.1
Cell cycle progression S (HaCaT cells): 25.3

melting point: 152 to 154 °C
SMILES: CC(C)(C)c1cccc(NC(=O)NC2CCCC2)c1 [Compound 48, 1-(3-(t-Butyl)phenyl)-3-cyclopentylurea]
GI50 [1]: 34 µM
IC50 ([1]; Table 6): 34 µM
GI50 [2]: 84 µM
IC50 ([2]; Table 6): 84 µM
GI50 [3]: 27 µM
IC50 ([3]; Table 6): 27 µM
GI50 [4]: > 100 µM
IC50 ([4]; Table 6): ≥ 100 µM
Expression of IL-6, HaCaT (IL-6): 74.6 ± 6.7 pg/mL

melting point: 142 to 143 °C
SMILES: O=C(Nc1cccc(I)c1)NC1CCCC1 [Compound 40, 1-Cyclopentyl-3-(3-iodophenyl)urea]
GI50 [1]: 30 µM
IC50 ([1]; Table 6): 30 µM
GI50 [2]: 23 µM
IC50 ([2]; Table 6): 23 µM
GI50 [3]: 30 µM
IC50 ([3]; Table 6): 30 µM
GI50 [4]: 49 µM
IC50 ([4]; Table 6): 49 µM
Expression of IL-6, HaCaT (IL-6): 89.8 ± 9.0 pg/mL

melting point: 172 to 173 °C
SMILES: O=C(NCC1CCC1)Nc1ccc(C2CCCCC2)cc1 [Compound 57, 1-(Cyclobutylmethyl)-3-(4-cyclohexylphenyl)urea]
GI50 [1]: > 100 µM
IC50 ([1]; Table 6): ≥ 100 µM
GI50 [2]: > 100 µM
IC50 ([2]; Table 6): ≥ 100 µM
GI50 [3]: > 100 µM
IC50 ([3]; Table 6): ≥ 100 µM
GI50 [4]: > 100 µM
IC50 ([4]; Table 6): ≥ 100 µM
Expression of IL-6, HaCaT (IL-6): 64.1 ± 5.4 pg/mL
inhibitory effect on IL-6 expression in HaCaT cells (IL-6; 10 μM, stimulated with IL-17A and TNFα, in words): significant inhibitory effect

melting point: 138 to 140 °C
SMILES: O=C(NCC1CCC1)Nc1cccc(I)c1 [Compound 39, 1-(Cyclobutylmethyl)-3-(3-iodophenyl)urea]
GI50 [1]: 25 µM
IC50 ([1]; Table 6): 25 µM
GI50 [2]: 15 µM
IC50 ([2]; Table 6): 15 µM
GI50 [3]: 25 µM
IC50 ([3]; Table 6): 25 µM
GI50 [4]: 31 µM
IC50 ([4]; Table 6): 31 µM
Expression of IL-6, HaCaT (IL-6): 90.2 ± 11.1 pg/mL

melting point: 166 to 168 °C
SMILES: CCCNC(=O)Nc1ccc(C2CCCCC2)cc1 [Compound 15]
IC50 ([1]; Table 5): > 100 µM
IC50 ([2]; Table 5): 59.1 µM
IC50 ([3]; Table 5): > 100 µM
IC50 ([4]; Table 5): > 100 µM

melting point: 144 to 152 °C
SMILES: S=C(NCC1CCC1)Nc1ccc(C2CCCCC2)cc1 [Compound 88]
IC50 ([1]; Table 8): 15.3 µM
IC50 ([2]; Table 8): 15.7 µM
IC50 ([3]; Table 8): 20.4 µM
IC50 ([4]; Table 8): 32.5 µM

melting point: 146 to 152 °C
SMILES: S=C(Nc1ccc(C2CCCCC2)cc1)NC1CCCC1 [Compound 89]
IC50 ([1]; Table 8): 20 µM
IC50 ([2]; Table 8): 14.6 µM
IC50 ([3]; Table 8): 21.6 µM
IC50 ([4]; Table 8): 34.9 µM

melting point: 141 to 144 °C
SMILES: CCNC(=O)Nc1cccc(C2CCCCC2)c1 [Compound 66]
IC50 ([1]; Table 6): 58 µM
IC50 ([2]; Table 6): 31 µM
IC50 ([3]; Table 6): 31 µM
IC50 ([4]; Table 6): 37 µM

melting point: 147 to 151 °C
SMILES: CCCNC(=O)Nc1ccc(C(C)(C)C)cc1 [Compound 9]
IC50 ([1]; Table 5): 67.1 µM
IC50 ([2]; Table 5): 10.5 µM
IC50 ([3]; Table 5): 54.9 µM
IC50 ([4]; Table 5): > 100 µM

Reference: patent US20210163404A1, “NOVEL UREA COMPOUNDS AND BIOISOSTERES THEREOF AND THEIR USE FOR TREATING INFLAMMATION AND INFLAMMATION-RELATED PATHOLOGIES” (UNIVERSITÉ LAVAL, priority 2017, published 2021)
